“Also recorded” adds a separate entry of the source. Read-outs that look alike come from different tables or passages of the source.
Columns and labels:
[1] = Placebo-controlled ascending multiple-dose study in healthy subjects; type: in vivo, human; conditions: for Tmax / Cmax / AUC(0-t) / AUC: human, in vivo, oral; for Cmax / AUC(0-t) / AUC: Geo Mean; for AUC(0-t): read-out: AUC (0-24); for AUC: read-out: AUC (AUC to 12 hours)
Protocol: A placebo-controlled, ascending multiple-dose study was also performed to evaluate the safety and pharmacokinetics of VGX-1027 in healthy human subjects. The primary outcome to be measure was the safety as determined by vital signs, physical examinations, ECGs, clinical laboratory evaluations, and adverse event reporting. The secondary outcome measured was the pharmacokinetics on day 1 and at steady state-on day 5. Study was performed upon 4 groups of subjects: group 1: 40 mg of VGX-1027 QD; group 2: 100 mg of VGX-1027 QD; group 3: 200 mg of VGX-1027 QD; group 4: 200 mg of VGX-1027 BID. The pharmacokinetics is provided in Table 7, below, along with data from the single dose study: […]

[2] = test system: splenic mononuclear cells (SMNC); test: Ex vivo proliferation and cytokine synthesis of SMNC from treated mice; type: cell-based
Protocol: These experiments were carried out to explore if intraperitoneal (i.p.) or oral administration (p.o.) in mice with VGX-1027 could influence the proliferative response of SMNC and the production of IL-1β, IL-10, TNF-α, IFN-γ and MIF from isolated PM and SMNC. PM and SMNC isolated from mice treated in vivo with VGX-1027 for 7 consecutive days intraperitoneally (0.5 mg/mouse), or orally (2.5 mg/mouse), or isolated from control animals that received VGX-1027 vehicle (Na2HPO4/H2O), or were without any treatment. 24 h after the last VGX-1027 treatment, PM and SMNC were collected for further in vitro stimulation and analysis.

[3] = test system: DNBS-induced colitis; test: DNB/DNBS-induced colitis; type: in vivo, mice
Protocol: Mice were injected with DNBS into the rectum and administered VGX-1027 an hour later; 4 days after, the mice were sacrificed, and the colons were isolated and analyzed. Variation in total body weight (A), stool consistency (B), macroscopic score (C), necrotic areas 9D), colon weight (E), and amount of cytokines in colon homogenate were determined Macroscopic score was determined by the following criteria: 0=no damage; 1=localized hyperaemia and/or oedema; 2=linear ulcer<half of the width of the colon; 3=linear ulcer>half the width of the colon; 4=circular ulcer<1 cm; 5=circular ulcer between 1 and 2 cm; 6=circular ulcer>2 cm.
Within 5 days after challenge with dinitrobenzene sulfonic acid (DNB), mice develop colitis. The disease severity is evaluated based on a macroscopic score. The vehicle-treated control mice and untreated mice developed colitis with a predictable and progressive increase in inflammation and body weight loss.
The colons of the control mice and of the VGX-1027 treated mice were removed, sectioned, fixed, and stained with hematoxylin and eosin. […] The tissue myeloperoxidase activity is a well established marker to assess the inflammatory cell (mainly neutrophils) infiltration. […] We counted an average of 8.9±1.2 (means±SD) cells/high power field of DNB-induced animals, whereas there were only 3.37±0.8 cells/high-power field in DNB-induced animals pretreated with VGX-1027 (p<0.0001).
DNBS challenge of mice induced clinical features of colitis including weight loss, diarrhea, intestinal damage, and necrotic regions (FIG. 11a-d). […] An increase in the weight of the colon is an indirect measure of increased thickness of the walls due to inflammation.

[4] = test system: spontaneous diabetes; test: Spontaneous diabetes in NOD mice; type: in vivo; conditions: i.p. 20 mg/kg 6 times a week, week 12 to 25
Protocol: (A) Euglycaemic female 12 week old NOD mice were treated intraperitoneally with either 20 mg/kg bw VGX-1027 or its vehicle six times a week from the 12th until the 25th week of age. An additional control group of mice was left untreated. Each group consisted of 16 mice. The data are representative of two independent experiments that were merged because of interstudies variability lower than 10%. Statistical analysis was performed by Logrank (Mantel-Cox). (B) Plasma glucose levels in control CBA/H mice receiving STZ (40 mg/kg/day, for 5 consecutive days) in conjunction with 12 daily intreperitoneum injections of vehicle (STZ), or in mice treated with STZ and VGX-1027 given as a continuous 12-day treatment. 100 mg/kg bw of VGX-1027, administered orally from day −1 to day +10. Results from a representative experiment are presented as mean±SD for seven to eight mice per group. *p<0.05 refers to treatment with MLD-STZ.

[5] = 100 mg, Multiple Dose (Day 1) 100 mg
[6] = 100 mg, Multiple Dose (Day 5) 100 mg
[7] = 200 mg, 200 mg BID, first dose, Day 1
[8] = 200 mg, 200 mg BID, first dose, Day 5
[9] = 200 mg, Multiple Dose (Day 1) 200 mg
[10] = 200 mg, Multiple Dose (Day 5) 200 mg
[11] = DNBS, treatment from 1 hour after DNBS

O=C(O)CC1CC(c2ccccc2)=NO1 (centres unmarked) [VGX-1027, 3-phenyl-4,5-dihydro-5-isoxazoleacetic acid]
urine drug levels ([1]; CAT002 urine PK analysis): high drug levels in urine | Tmax [1, 5]: 1 h | Cmax [1, 5]: 7570 ng/mL | AUC(0-t) [1, 5]: 31300 ng·h/mL | Tmax [1, 6]: 1.5 h | Cmax [1, 6]: 6760 ng/mL | AUC(0-t) [1, 6]: 23200 ng·h/mL | Tmax [1, 7]: 1 h | Cmax [1, 7]: 13100 ng/mL | AUC [1, 7]: 58200 ng·h/mL | Tmax [1, 8]: 1.5 h | Cmax [1, 8]: 16800 ng/mL | AUC [1, 8]: 70400 ng·h/mL | Tmax [1, 9]: 1.3 h | Cmax [1, 9]: 15700 ng/mL | AUC(0-t) [1, 9]: 78100 ng·h/mL | Tmax [1, 10]: 2 h | Cmax [1, 10]: 14100 ng/mL | AUC(0-t) [1, 10]: 65700 ng·h/mL | dosing toxicities ([1]; up to 200 mg bid for 5 days): No dosing toxicities were observed | IFN-γ production [2]: normal capacity | IL-1 β production [2]: normal capacity | IL-10 production [2]: normal capacity | MIF expression [2]: normal expression pattern | TNF-α production [2]: normal capacity | capacity to proliferate ([2]; mice treated 7 days): normal capacity | increase in colon weight ([3]; DNB colitis): significantly lower | weight loss ([3]; DNB colitis): significant reduction | tissue damage (histology) ([3]; DNB colitis, treated before induction): significantly reduced | progression of inflammatory colitis ([3]; DNB, p<0.001): significantly attenuated | neutrophils infiltrating ([3]; DNB-induced animals pretreated, means±SD): 3.37±0.8 cells/high-power field | IL-18 in colon homogenates [3, 11]: decreased amounts | TNF-α in colon homogenates [3, 11]: decreased amounts | colon weight [3, 11]: decreased | features of colitis / degree of protection ([3]; DNBS, treatment from 1 hour after until 4 days after DNBS): markedly improved; also recorded: comparable to that afforded by 1 mg/kg of dexamethasone | inflammatory cell infiltration (myeloperoxidase activity) ([3]; colon tissue, 5 days after induction, p<0.0001): significant reduction | mice developing TID ([4]; by 25 weeks): 31.3% | tolerability of prolonged treatment [4]: well tolerated
